Laboratory results taken from patent publication US20240174696A1, “2,8-DIAZASPIRO[4.5]DECANE COMPOUNDS” (Genentech, Inc., priority 2021, published 2024).

Key:
[1] = system: pYAP(Ser127) in SW1990 cells; test: pYAP(Ser127) HTRF Cellular Assay; type: cell-based; conditions: Homo sapiens, 4 hours
Experimental: The SW1990 cells were seeded at 8000 cells/well by adding 30 μL/well of cells in RPMI1640, 10% FBS, 2 mM glutamine culture media to a 384-well plate (Corning 3570). The cells were incubated overnight at 37° C. Next day, compounds were directly added to the cells using the Echo Liquid Handler (Labcyte), incubate at 37° C. for 4 hours.
The HTRF assay was performed using the Cisbio phospho-YAP Ser127 HTRF kit (64YAPPEG). The media was aspirated from the cells. 20 μL of 1X lysis/blocking buffer was added to the cells, gently shake for 30 minutes at room temperature. 1 μL of the premixed antibody solution (1:40 dilution of each phospho-YAP Eu Cryptate antibody and phospho-YAP d2 antibody) was added to the cells. The plate was sealed and incubated overnight at room temperature. The HTRF (665 nm/620 nm) signal was read on the PHERAstar reader (BMG Labtech). The EC50 values were calculated by fitting the % inhibition with a nonlinear four-parameter logistical equation.

[2] = molecular target: T1, Human LATS2 catalytic domain (Homo sapiens (Human), UniProt Q9NRM7); test: LATS2 High ATP HTRF Assay; type: biochemical; conditions: no asterisk: LATS2 High ATP HTRF Assay, 5000 μM ATP, 0.05 nM LATS2
T1 sequence (Q9NRM7 553-1088): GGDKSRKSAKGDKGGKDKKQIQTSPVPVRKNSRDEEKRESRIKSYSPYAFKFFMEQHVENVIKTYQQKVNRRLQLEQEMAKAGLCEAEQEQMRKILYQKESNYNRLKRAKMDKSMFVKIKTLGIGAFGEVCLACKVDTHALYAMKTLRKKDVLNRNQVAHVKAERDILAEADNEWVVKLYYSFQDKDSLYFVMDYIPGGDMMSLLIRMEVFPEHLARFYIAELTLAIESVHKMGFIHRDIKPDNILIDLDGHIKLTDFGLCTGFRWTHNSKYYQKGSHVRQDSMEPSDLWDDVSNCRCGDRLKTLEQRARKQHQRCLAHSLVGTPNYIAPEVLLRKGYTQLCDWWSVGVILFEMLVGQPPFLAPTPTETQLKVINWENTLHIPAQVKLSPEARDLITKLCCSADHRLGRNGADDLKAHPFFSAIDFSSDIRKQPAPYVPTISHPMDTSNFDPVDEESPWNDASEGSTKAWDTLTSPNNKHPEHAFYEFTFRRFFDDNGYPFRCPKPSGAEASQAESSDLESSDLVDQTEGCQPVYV
T1 sequence (Q7L9L4 whole entry partner, the tested form may be a part): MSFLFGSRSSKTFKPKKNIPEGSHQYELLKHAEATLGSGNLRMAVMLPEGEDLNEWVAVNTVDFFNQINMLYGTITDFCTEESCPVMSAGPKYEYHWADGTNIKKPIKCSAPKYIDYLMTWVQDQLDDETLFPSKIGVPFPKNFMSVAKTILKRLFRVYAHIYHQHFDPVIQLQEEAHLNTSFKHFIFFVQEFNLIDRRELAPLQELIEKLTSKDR
Summary of the method: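 Phosphorylation of 0.5 μM STK S1 peptide at high ATP (5000 μM), 2 h at room temperature, by 0.05 nM LATS2 kinase domain/Mob1b complex after 10 min compound pre-incubation. Ki derived from HTRF-based IC50 (4-parameter logistic) by Cheng-Prusoff, ATP Km 105 μM.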

[3] = molecular target: Human LATS1 catalytic domain (Homo sapiens (Human), UniProt O95835); test: LATS1 High ATP HTRF Assay; type: biochemical; conditions: 5000 μM ATP, 0.025 nM LATS1; Cheng-Prusoff
Sequence of Human LATS1 catalytic domain (O95835 590-1130): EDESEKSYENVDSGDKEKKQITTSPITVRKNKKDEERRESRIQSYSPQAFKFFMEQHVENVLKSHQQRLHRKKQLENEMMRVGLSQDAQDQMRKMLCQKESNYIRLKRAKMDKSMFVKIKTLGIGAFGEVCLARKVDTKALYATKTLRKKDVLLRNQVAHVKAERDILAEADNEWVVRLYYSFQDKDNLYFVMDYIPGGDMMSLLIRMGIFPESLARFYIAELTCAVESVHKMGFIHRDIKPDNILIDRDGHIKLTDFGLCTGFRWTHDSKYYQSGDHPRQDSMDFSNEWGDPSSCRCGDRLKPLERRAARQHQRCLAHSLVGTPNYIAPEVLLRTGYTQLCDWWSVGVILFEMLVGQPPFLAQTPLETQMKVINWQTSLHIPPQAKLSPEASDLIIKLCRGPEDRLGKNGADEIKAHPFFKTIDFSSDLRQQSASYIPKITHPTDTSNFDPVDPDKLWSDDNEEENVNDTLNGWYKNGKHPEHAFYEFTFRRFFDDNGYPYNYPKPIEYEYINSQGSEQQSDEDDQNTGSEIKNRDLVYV
Sequence of Human LATS1 catalytic domain (Q7L9L4 whole entry partner, the tested form may be a part): as the sequence (Q7L9L4 whole entry partner, the tested form may be a part) above
Experimental: Human LATS1 catalytic domain which contains the amino acids E590-V1130 (accession NP_004681) was purified in-house. The LATS1 catalytic domain was co-purified with Mob1b (accession NP_775739). The LATS1 biochemical assay was performed using the HTRF KinEASE-STK S1 Kit (Cisbio, Cat #62ST1PEC), following the protocol from the manufacturer. Compounds were dispensed by the Echo Liquid Handler (Labcyte) into a white 384-well plate (PerkinElmer, Cat #6008289). 3 μL of 2×LATS1 enzyme solution was added to the compounds, followed by a 10 minute incubation at room temperature. Then, 3 μL of 2×ATP and STK S1 peptide solution was added to initiate the enzyme reaction for one hour at room temperature. The final condition of the reaction was 0.025 nM LATS1, 5000 μM ATP, 0.5 μM STK S1 peptide in 50 mM HEPES pH 7.2, 10 mM MgCl2, 0.1% BGG, 0.005% Brij-35, 1 mM DTT. The reaction was quenched and the HTRF signal was read.

[4] = system: TAZ nuclear translocation in SW1990 cells; test: TAZ Nuclear Translocation Assay; type: cell-based; conditions: Homo sapiens, 4 hours
Summary of the method: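 SW1990 cells in RPMI1640/10% FBS treated with compounds for 4 h at 37 °C, then fixed and immunostained for TAZ with Hoechst nuclear counterstain and imaged by high-content imaging. Read-out is the nuclear/cytoplasmic-ring fluorescence ratio, normalized to DMSO (0%) and an inhibitor control (100%); EC50 from four-parameter fit.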

[5] = molecular target: T1, Human LATS2 catalytic domain; test: Standard LATS2 HTRF Assay; type: biochemical; conditions: asterisk: Standard LATS2 HTRF Assay, 50 μM ATP, 0.2 nM LATS2
Experimental: Human LATS2 catalytic domain which contains the amino acids G553-V1088 (accession NP_055387) was purified in-house. The LATS2 catalytic domain was co-purified with Mob1b (accession NP_775739). The LATS2 biochemical HTRF assay was performed using the HTRF KinEASE-STK S1 Kit (Cisbio, Cat #62ST1PEC), following the protocol from the manufacturer. Compounds were dispensed by the Echo Liquid Handler (Labcyte) into a white 384-well plate (PerkinElmer, Cat #6008289). 3 uL of 2×LATS2 enzyme solution was added to the compounds, following by a 10 minute incubation at room temperature. Then, 2×ATP and STK S1 peptide solution was added to initiate the one hour enzyme reaction at room temperature. The final condition of the reaction was 0.2 nM LATS2, 50 μM ATP, 0.5 μM STK S1 peptide in 50 mM HEPES pH7.2, 10 mM MgCl2, 0.1% BGG, 0.005% Brij-35, 1 mM DTT. The reaction was quenched by adding 6 uL of the detection mixture which contained Streptavidin XL665 and STK Antibody-Cryptate (Cisbio), incubate for 1 hour at room temperature. The HTRF (665 nm/620 nm) signal was read on the Envision plater reader (PerkinElmer). The IC50 values were determined by fitting the % inhibition with a nonlinear four-parameter logistical equation. The Ki values were calculated using the Cheng-Prusoff equation for a competitive inhibitor, IC50═Ki (1+S/Km)+M [E] with ATP Km for LATS2=105 μM.

Question: How did the EC50 [1] turn out when `CC(C)(O)CN1CCC2(CCN(c3nc(-c4ccncc4)nc4cnccc34)CC2)C1` [Compound 110, 2-methyl-1-(8-(2-(pyridin-4-yl)pyrido[3,4-d]pyrimidin-4-yl)-2,8-diazaspiro[4.5]decan-2-yl)propan-2-ol] was run?
Answer: 330 nM

Question: What about the Ki [2] of the same compound?
Answer: 0.075 nM

Question: What about the Ki [3] of the same compound?
Answer: 0.0079 nM

Question: And the EC50 [4]?
Answer: 220 nM

Question: For `N#CC1CC(N2CCC3(CCN(c4nc(-c5ccncc5)nc5cnccc45)CC3)C2)C1` (centres unmarked) [Compound 118, 3-(8-(2-(pyridin-4-yl)pyrido[3,4-d]pyrimidin-4-yl)-2,8-diazaspiro[4.5]decan-2-yl)cyclobutanecarbonitrile], which Ki [5] is on record?
Answer: 1.02 nM

Question: What about the EC50 [4] of the same compound?
Answer: > 10000 nM

Question: Which results are given for `c1cc(-c2nc(N3CCC4(CC3)CCN(C3CCOCC3)C4)c3ccncc3n2)ccn1` [Compound 122, 2-(pyridin-4-yl)-4-(2-(tetrahydro-2H-pyran-4-yl)-2,8-diazaspiro[4.5]decan-8-yl)pyrido[3,4-d]pyrimidine]?
Answer: Ki [5]: 1.02 nM; EC50 [4]: 990 nM

Question: With `c1cc(-c2nc(N3CCC4(CCN(CC5COC5)C4)CC3)c3ccncc3n2)ccn1` [Compound 124, 4-(2-(oxetan-3-ylmethyl)-2,8-diazaspiro[4.5]decan-8-yl)-2-(pyridin-4-yl)pyrido[3,4-d]pyrimidine] as the compound, how does the EC50 [1] read?
Answer: 260 nM

Question: What about the Ki [2] of the same compound?
Answer: 0.083 nM

Question: What about the Ki [3] of the same compound?
Answer: 0.0068 nM

Question: And the EC50 [4]?
Answer: 240 nM

Question: Which Ki [5] does the source give for `c1cc(-c2nc(N3CCC4(CC3)CCN(C3COC3)C4)c3ccncc3n2)ccn1` [Compound 137, 4-(2-(oxetan-3-yl)-2,8-diazaspiro[4.5]decan-8-yl)-2-(pyridin-4-yl)pyrido[3,4-d]pyrimidine] here?
Answer: 2.17 nM

Question: What about the EC50 [4] of the same compound?
Answer: 1700 nM

Question: For `Cc1n[nH]cc1-c1nc(N2CCC3(CC2)CCN(C2CCCC2)C3)c2ccncc2n1` [Compound 147, 4-(2-cyclopentyl-2,8-diazaspiro[4.5]decan-8-yl)-2-(3-methyl-1H-pyrazol-4-yl)pyrido[3,4-d]pyrimidine], which EC50 [1] is on record?
Answer: 210 nM

Question: What about the Ki [2] of the same compound?
Answer: 0.056 nM

Question: What about the Ki [3] of the same compound?
Answer: 0.013 nM

Question: What about the EC50 [4] of the same compound?
Answer: 180 nM

Question: For `FC(F)(F)c1[nH]ncc1-c1nc(N2CCC3(CCNC3)CC2)c2ccncc2n1` [Compound 154, 4-(2,8-diazaspiro[4.5]decan-8-yl)-2-(5-(trifluoromethyl)-1H-pyrazol-4-yl)pyrido[3,4-d]pyrimidine], which Ki [5] is on record?
Answer: 0.16 nM

Question: And the EC50 [4]?
Answer: 7200 nM

Question: `c1ccc(Cc2cc3c(N4CCC5(CCNC5)CC4)nc(-c4ccncc4)nc3cn2)cc1` [Compound 157, 6-benzyl-2-(pyridin-4-yl)-4-(2,8-diazaspiro[4.5]decan-8-yl)pyrido[3,4-d]pyrimidine] was tested. Which EC50 [1] did it give?
Answer: 510 nM

Question: And the Ki [2]?
Answer: 0.067 nM

Question: And the Ki [3]?
Answer: 0.049 nM

Question: And the EC50 [4]?
Answer: 240 nM

Question: Which results are given for `Cc1cc2c(N3CCC4(CCNC4)CC3)nc(-c3ccncc3)nc2cn1` [Compound 158, 6-methyl-2-(pyridin-4-yl)-4-(2,8-diazaspiro[4.5]decan-8-yl)pyrido[3,4-d]pyrimidine]?
Answer: Ki [5]: 1.29 nM; EC50 [4]: 3100 nM

Question: How did the Ki [2] turn out when `O=C1CC2(CCN(c3nc(-c4ccncc4)nc4cnccc34)CC2)CN1` [Compound 164, 8-(2-(pyridin-4-yl)pyrido[3,4-d]pyrimidin-4-yl)-2,8-diazaspiro[4.5]decan-3-one] was run?
Answer: 53.5 nM

Question: What about the Ki [5] of the same compound?
Answer: 9.42 nM

Question: What about the EC50 [4] of the same compound?
Answer: > 10000 nM

Question: Which results are given for `O=C1NCCC12CCN(c1nc(-c3ccncc3)nc3cnccc13)CC2` [Compound 165, 8-(2-(pyridin-4-yl)pyrido[3,4-d]pyrimidin-4-yl)-2,8-diazaspiro[4.5]decan-1-one]?
Answer: Ki [2]: 5.35 nM; Ki [5]: 3.93 nM; EC50 [4]: 6500 nM
